{"source": "patent US20040014721A1", "about": "“Method for using tethered bis(polyhydroxyphenyls) and O-alkyl derivatives thereof in treating inflammatory conditions of the central nervous system” (Oklahoma Medical Research Foundation, priority 2002, published 2004)", "key": {"[1]": {"tested_on": "TNFα-Stimulated NO2^− Production in EOC-20 Cells", "experiment": "TNFα-stimulated nitrite (NO2−) production in EOC-20 microglial cells, Griess assay", "type": "cell-based, mouse", "protocol": "Cells were cultured in 24 well plates until confluent then treated with test agent, which was dissolved at 100× final concentration in dimethylsulfoxide (DMSO), or with vehicle only. Thirty minutes after treatment with test agent, cells were treated with 10 ng/mL recombinant mouse TNFα (Pharmingen, San Diego, Calif. USA). […] Each compound was tested at 100 μM, 20 μM, 4 μM, 0.8 μM and 0 μM in the presence of TNFα. Four wells of cells were used for each concentration of test agent.\nLower IC50 values indicate improved efficacy. FIG. 2 illustrates the principle of the measurement using NDGA as an example test agent. In order to determine viability, cell culture medium was replaced with phenol-free DMEM (Gibco) containing 20 μL/mL of MTT viability reagent (Promega). […] Control cells were taken to indicate 100% viability and intermediate values of MTT reduction were scaled to percentage of control. For each compound, an LD50 value was determined by extrapolation through sublethal concentrations. This value represents the concentration that reduced the MTT viability parameter by 50%."}, "G93A-SOD1 mice [2]": {"tested_on": "G93A-SOD1 mice", "protocol": "NDGA was formulated into AIN93G laboratory mouse chow at 2500 ppm (approximately […] intake/mouse/day). […] G93A-SOD1 mice and nontransgenic littermates were fed this NDGA-containing diet, or a control diet, beginning at 90 D of age. An observer blinded to the treatment groups tested the animals on the rotarod task at 100 D and every 5 days thereafter. […] This is a very important point, as most forms of human ALS are sporadic and prophylactic treatment is not practical."}, "G93A-SOD1 mice [3]": {"tested_on": "G93A-SOD1 mice", "experiment": "Immunochemistry of lumbar spinal cord of G93A-SOD1 mice on oral NDGA (GFAP, F4/80)", "type": "in vivo, mouse", "protocol": "Mice were anesthetized with pentobarbital and perfused transcardially with 4% paraformaldehyde in phosphate buffer. The lumbar region (L1-L5) was processed for paraffin embedding. Immunochemistry was performed on […] sections, using commercially available antibodies, and tissue sections were routinely counterstained with hematoxylin and eosin. Polyclonal anti-SOD1 IgG was purchased from Chemicon (Temecula, Calif.). Polyclonal anti-5LOX IgG was purchased from Cayman Chemical (San Diego, Calif.). Monoclonal anti-5LOX was obtained from Transduction Laboratories (Lexington, Ky.). Polyclonal antibody against glial fibrillary acidic protein (GFAP) was purchased from Research Diagnostics International (Flanders, N.J.). FITC-conjugated anti-F4/80, which recognizes a microglial cell surface antigen (Drachman et al., 2002), was purchased from Serotec (Raleigh, N.C.). Positive control for 5LOX Western blots was SL-29 fibroblast lysate (Transduction Laboratories, provided with the antibody). Electrophoresis was performed on 4-20% gradient polyacrylamide gels, and bands were visualized with chemiluminescence detection reagents (Amersham).\nMicroglial proliferation is another neuroinflammatory feature inherent to motoneuron disease in the G93A-SOD1 mouse (Drachman et al., 2002). […]"}, "rats": {"tested_on": "rats", "conditions": "rat, in vivo, po; cited from earlier work"}}, "note": "Entries after “also recorded” stand apart in the source; their conditions may differ.", "data": [{"compound": "C[C@H](Cc1ccc(O)c(O)c1)[C@@H](C)Cc1ccc(O)c(O)c1", "note": "[NDGA, 1,4-bis (3,4-Dihydroxyphenyl)-2,3-dimethylbutane]", "values": [{"measurement": "NO2− suppression at 800 nM", "setting": "[1]; 800 nM", "result": "Significant NO2^− suppression"}, {"measurement": "IC50", "setting": "[1]; Mus musculus, read-out: IC50", "result": "3 to 5", "unit": "µM"}, {"measurement": "potency relative to minocycline", "setting": "[1]; fold more potent than minocycline", "result": "approximately 16 times"}, {"measurement": "RR (survival, logrank analysis)", "setting": "G93A-SOD1 mice [2]; 2500 ppm in chow from 90 D", "result": 0.27}, {"measurement": "median age of death", "setting": "G93A-SOD1 mice [2]; 2500 ppm in chow from 90 D", "result": 140, "unit": "D"}, {"measurement": "pathological effects at necropsy", "setting": "G93A-SOD1 mice [2]; mouse, in vivo", "result": "no pathological effects of the drug were observed"}, {"measurement": "weight changes", "setting": "G93A-SOD1 mice [2]; mouse, in vivo", "result": "No weight changes were observed"}, {"measurement": "extension of paralytic phase (onset of paralysis to death)", "setting": "G93A-SOD1 mice [2]; oral", "result": "approximately 40%"}, {"measurement": "rotarod performance", "setting": "G93A-SOD1 mice [2]; oral", "result": "significantly improved rotarod performance"}, {"measurement": "Onset of frank paralysis, mean ± SD", "setting": "G93A-SOD1 mice [2]; oral NDGA", "result": "121 ± 7.1", "unit": "D"}, {"measurement": "Onset of frank paralysis, median", "setting": "G93A-SOD1 mice [2]; oral NDGA", "result": 120, "unit": "D"}, {"measurement": "Time between onset and death, mean ± SD", "setting": "G93A-SOD1 mice [2]; oral NDGA", "result": "16.5 ± 7.9", "unit": "D"}, {"measurement": "Time between onset and death, median", "setting": "G93A-SOD1 mice [2]; oral NDGA", "result": 14, "unit": "D"}, {"measurement": "extension of median lifespan", "setting": "G93A-SOD1 mice [2]; oral, from 90 D", "result": 13, "unit": "D"}, {"measurement": "prolongation of lifespan after start of treatment", "setting": "G93A-SOD1 mice [2]; oral, from 90 D", "result": 32, "unit": "%"}, {"measurement": "F4/80-positive microglia, lumbar spinal cord", "setting": "G93A-SOD1 mice [3]; 120 D of age", "result": "diminished the number of F4/80-positive microglia"}, {"measurement": "astrogliosis (GFAP-positive astrocytes), lumbar spinal cord", "setting": "G93A-SOD1 mice [3]; 120 D old mice", "result": "significantly diminished astrogliosis; also recorded: significantly decreased the number of GFAP-positive astrocytes"}, {"measurement": "LD50", "setting": "rats", "result": "more than 2000 mg/kg"}]}]}
